PubChem BioAssay AID2060503 (Molecular Pharmacology Branch, DTP, NCI, 2025)

Test system: 817829-284-R-J1-PDC complex spheroids, viability
Assay: Anticancer human tumor 817829-284-R-J1-PDC patient-derived colon adenocarcinoma cell line growth inhibition [GQUAD]
Details: for IC50: curve of first compound; for viability, T/C: stronger effect = lower value
Method in brief: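 Tumor cells were grown as complex spheroids with HUVEC endothelial cells and mesenchymal stem cells as stroma. G-quadruplex stabilizers were combined with targeted agents over half-log dilutions from near the clinical Cmax, or from 10 microM.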

[1] = second compound 0.0316 µM, first compound 0.0316 µM
[2] = second compound 0.0316 µM, first compound 0.1 µM
[3] = second compound 0.0316 µM, first compound 0.316 µM
[4] = second compound 0.0316 µM, first compound 1 µM
[5] = second compound 0.0316 µM, first compound 3.16 µM
[6] = second compound 0.0316 µM, first compound 10 µM
[7] = second compound 0.1 µM, first compound 0.0316 µM
[8] = second compound 0.1 µM, first compound 0.1 µM
[9] = second compound 0.1 µM, first compound 0.316 µM
[10] = second compound 0.1 µM, first compound 1 µM
[11] = second compound 0.1 µM, first compound 3.16 µM
[12] = second compound 0.1 µM, first compound 10 µM
[13] = second compound 0.316 µM, first compound 0.0316 µM
[14] = second compound 0.316 µM, first compound 0.1 µM
[15] = second compound 0.316 µM, first compound 0.316 µM
[16] = second compound 0.316 µM, first compound 1 µM
[17] = second compound 0.316 µM, first compound 3.16 µM
[18] = second compound 0.316 µM, first compound 10 µM
[19] = second compound 1 µM, first compound 0.0316 µM
[20] = second compound 1 µM, first compound 0.1 µM
[21] = second compound 1 µM, first compound 0.316 µM
[22] = second compound 1 µM, first compound 1 µM
[23] = second compound 1 µM, first compound 3.16 µM
[24] = second compound 1 µM, first compound 10 µM
[25] = second compound 3.16 µM, first compound 0.0316 µM
[26] = second compound 3.16 µM, first compound 0.1 µM
[27] = second compound 3.16 µM, first compound 0.316 µM
[28] = second compound 3.16 µM, first compound 1 µM
[29] = second compound 3.16 µM, first compound 3.16 µM
[30] = second compound 3.16 µM, first compound 10 µM
[31] = second compound 10 µM, first compound 0.0316 µM
[32] = second compound 10 µM, first compound 0.1 µM
[33] = second compound 10 µM, first compound 0.316 µM
[34] = second compound 10 µM, first compound 1 µM
[35] = second compound 10 µM, first compound 3.16 µM
[36] = second compound 10 µM, first compound 10 µM
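Further: spheroids exposed to agents for 7 days before readout.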
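Wherever viability, T/C is given: percent viability relative to DMSO vehicle control taken as 100%.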

SMILES: CC1COCCN1c1cc(C2(O)CC3CCC(C2)O3)c2cnn(-c3ccn[nH]3)c2n1 (centres undefined) + Cc1[nH]c2ccc(F)cc2c1-c1nc2c3cccnc3c3ncccc3c2[nH]1
- IC50 (second compound 0.0316 µM): < 31.6 nM
- IC50 (second compound 0.1 µM): < 31.6 nM
- IC50 (second compound 0.316 µM): < 31.6 nM
- IC50 (second compound 1 µM): < 31.6 nM
- IC50 (second compound 3.16 µM): < 31.6 nM
- IC50 (second compound 10 µM): < 31.6 nM
- viability, T/C [1]: 40.4%
- viability, T/C [2]: 9.87%
- viability, T/C [3]: 7.43%
- viability, T/C [4]: 5.2%
- viability, T/C [5]: 5.12%
- viability, T/C [6]: 3.63%
- viability, T/C [7]: 32%
- viability, T/C [8]: 12.5%
- viability, T/C [9]: 7.69%
- viability, T/C [10]: 6.04%
- viability, T/C [11]: 5.1%
- viability, T/C [12]: 3.62%
- viability, T/C [13]: 28.5%
- viability, T/C [14]: 13.2%
- viability, T/C [15]: 6.99%
- viability, T/C [16]: 5.84%
- viability, T/C [17]: 5.13%
- viability, T/C [18]: 3.71%
- viability, T/C [19]: 30.4%
- viability, T/C [20]: 11.7%
- viability, T/C [21]: 7.32%
- viability, T/C [22]: 6.4%
- viability, T/C [23]: 4.91%
- viability, T/C [24]: 3.49%
- viability, T/C [25]: 19.1%
- viability, T/C [26]: 6.27%
- viability, T/C [27]: 4.26%
- viability, T/C [28]: 3.69%
- viability, T/C [29]: 3.38%
- viability, T/C [30]: 1.97%
- viability, T/C [31]: 6.89%
- viability, T/C [32]: 2.8%
- viability, T/C [33]: 4.24%
- viability, T/C [34]: 2.85%
- viability, T/C [35]: 2.85%
- viability, T/C [36]: 1.69%

SMILES: COc1ccc([C@@H](O)c2cc(-c3ncnc4cc(N5CCOCC5)ccc34)c(F)cc2Cl)nn1 + CN(C)c1ccc(Nc2c3ccc(NC(=O)CCN4CCCC4)cc3nc3cc(NC(=O)CCN4CCCC4)ccc23)cc1
- IC50 (second compound 0.0316 µM): > 10000 nM
- IC50 (second compound 0.1 µM): > 10000 nM
- IC50 (second compound 0.316 µM): > 10000 nM
- IC50 (second compound 1 µM): 8580 nM
- IC50 (second compound 3.16 µM): 2950 nM
- IC50 (second compound 10 µM): 1140 nM
- viability, T/C [1]: 104%
- viability, T/C [2]: 98.7%
- viability, T/C [3]: 103%
- viability, T/C [4]: 85.5%
- viability, T/C [5]: 88%
- viability, T/C [6]: 58.1%
- viability, T/C [7]: 86.8%
- viability, T/C [8]: 100%
- viability, T/C [9]: 94.4%
- viability, T/C [10]: 94.7%
- viability, T/C [11]: 63.5%
- viability, T/C [12]: 54.7%
- viability, T/C [13]: 92.2%
- viability, T/C [14]: 107%
- viability, T/C [15]: 115%
- viability, T/C [16]: 95.5%
- viability, T/C [17]: 76%
- viability, T/C [18]: 56.3%
- viability, T/C [19]: 88.9%
- viability, T/C [20]: 106%
- viability, T/C [21]: 98%
- viability, T/C [22]: 86.5%
- viability, T/C [23]: 68.8%
- viability, T/C [24]: 47%
- viability, T/C [25]: 93.6%
- viability, T/C [26]: 96.3%
- viability, T/C [27]: 96.9%
- viability, T/C [28]: 73.9%
- viability, T/C [29]: 50.1%
- viability, T/C [30]: 33.4%
- viability, T/C [31]: 107%
- viability, T/C [32]: 85.9%
- viability, T/C [33]: 85.7%
- viability, T/C [34]: 47.5%
- viability, T/C [35]: 31.3%
- viability, T/C [36]: 13.5%
